Data: article PMC5297809, “Design, Synthesis and Antifungal Activity Evaluation of New Thiazolin-4-ones as Potential Lanosterol 14α-Demethylase Inhibitors” (International Journal of Molecular Sciences, 2017)
Values after ≈ are worked out from the molar mass of the structure shown. Like-named read-outs stand apart in the source and are kept apart here.

Tests used:
[1] = test system: Candida albicans ATCC 10231; assay: cup-plate agar diffusion method, inhibition zone diameters; type: cell-based
[2] = lipophilicity by RP-TLC with PCA; type: physicochemical; parameters: key to P1 / P2: PCA scores of compounds computed from Rf data; conditions: for RM0: RP-TLC C18, water-i-propanol 45-65%, intercept, RM extrapolated to 0% organic modifier (lipophilicity); for b: RP-TLC regression slope (specific hydrophobic surface area); for P1: score of first principal component of Rf data, low P1 = highly lipophilic; for P2: score of second principal component of Rf data
Protocol: The lipophilic character of twenty thiazolin-4-one derivatives was assessed with the help of the principal component analysis (PCA) based on the reversed-phase thin-layer chromatography (RP-TLC) data.
The chromatographic behavior of the test compounds was studied on C18 silicagel bonded 60 RP-180F254S TLC (20 × 20 cm) plates, purchased from Merck (Darmstadt, Germany). The test compounds’ solutions (1 mg/mL) were prepared by dissolving the samples in DMSO (Merck, Darmstadt, Germany). The plates were manually spotted with 3 µL aliquots of each solution at 10 mm from the base and 5 mm from the edge of the plate, leaving a 10 mm distance between successive spots, and developed by the ascending technique, without preconditioning. Chromatography was performed in a normal developing chamber at room temperature (~24 °C), the developing distance being of 9 cm. The solvent system used as mobile phase consisted of a water-i-propanol mixture, with a varying content of organic modifier (i-propanol—concentration ranged between 45% and 65% (v/v), with 5% vol. increments). Before the development, the chamber was saturated with the mobile phase for 15 min. After being developed, the dried plates were visually inspected under the UV light (λ = 254 nm), each spot was clearly marked and its distance was manually measured in order to calculate the Rf values. The spots of the compounds 3f, 10 and 11 were not visible in UV light, thus their Rf values could not be calculated, therefore they were excluded from this assay.
Based on the Rf values, one of the most common lipophilic estimator, meaning the isocratic retention factor RM was calculated using the Bate-Smith and Westall equations [40].
RP-TLC provides retention data in the form of Rf and the corresponding RM values (Equation (2)) that can be used to derive chromatographic descriptors for estimating lipophilicity: RM0, b and PCA. The most popular lipophilicity descriptor estimated by this method is RM and it is derived from the retention factor (Rf) according to the following formula: RM = log[(1/Rf) − 1] (2) where Rf is calculated on the basis of migration distance of a compound and the solvent front.
As RM value (related to the molecular lipophilicity) depends linearly on the concentration of the organic modifier in the mobile phase, the value is extrapolated to pure water as mobile phase. In order to increase the accuracy of the lipophilicity determination, the RM values extrapolated to zero organic modifier concentration (RM0) have been calculated from the linear correlation between the RM values and the concentration of the organic component of the mobile phase: RM = RM0 + bc (3) where RM0 is the lipophilicity estimation parameter, RM is the retention of the solute, b is the slope, and c is the concentration of the mobile phase organic modifier (i-propanol).
The intercept (RM0) in Equation (3) represents the extrapolated RM values at 0% organic modifier.
PCA was performed on the obtained retention parameters with the help of XL-STAT extension. […] PCA gave the coordinates (scores) of the studied compounds and also the loadings of the variables (solvents) on the principal components.

[3] = test system: Candida parapsilosis ATCC 22019; assay: broth microdilution MIC/MFC; type: cell-based; conditions: Lodderomyces parapsilosis, ATCC22019
[4] = test system: Candida albicans ATCC 18804; assay: broth microdilution MIC/MFC; type: cell-based
[5] = test system: Candida albicans ATCC 10231; assay: broth microdilution MIC/MFC; type: cell-based
Candida krusei ATCC 6258 = assay: broth microdilution MIC/MFC; type: cell-based; conditions: Pichia kudriavzevii, ATCC6258
[6] = ATCC10231, C. albicans ATCC 10231, 1 mg/mL in DMSO, 20 µg/well, mean of three ± SD, read-out: inhibition zone diameters
[7] = C. parapsilosis ATCC 22019, read-out: MFC
[8] = C. parapsilosis ATCC 22019, read-out: MIC
[9] = ATCC18804, C. albicans ATCC 18804, read-out: MFC
[10] = ATCC18804, C. albicans ATCC 18804, read-out: MIC
[11] = ATCC10231, C. albicans ATCC 10231, read-out: MFC
[12] = ATCC10231, C. albicans ATCC 10231, read-out: MIC
[13] = C. krusei ATCC 6258, read-out: MFC
[14] = C. krusei ATCC 6258, read-out: MIC

Compound | RM0 [2] | b [2] | P1 [2] | P2 [2] | MIC [3, 8] [µg/mL] | melting point [°C] | MIC [4, 10] [µg/mL] | MIC [5, 12] [µg/mL] | MIC (Candida krusei ATCC 6258; [14]) [µg/mL] | zone of inhibition at 1000 µg/mL [1, 6] [mm] | MFC [3, 7] [µg/mL] | MFC [4, 9] [µg/mL] | MFC [5, 11] [µg/mL] | MFC (Candida krusei ATCC 6258; [13]) [µg/mL] | further results
C=CCNC1=NC(=O)C(=Cc2ccc(O)cc2)S1 [Compound 3h, 2-(Allylamino)-5-(4-hydroxybenzylidene)thiazol-4(5H)-one] | 1.1465 | −2.6897 | 2.905 | 0.056 | 0.12 (≈ 0.461 µM) | 338 | 0.48 (≈ 1.84 µM) | 0.24 (≈ 0.922 µM) | 0.24 (≈ 0.922 µM) | 20 ± 0.5 | 0.97 (≈ 3.73 µM) | 0.97 (≈ 3.73 µM) | 0.48 (≈ 1.84 µM) | 0.97 (≈ 3.73 µM) | 
C=CCNC1=NC(=O)C(=Cc2cccc(Cl)c2)S1 [Compound 3a, 2-(Allylamino)-5-(3-chlorobenzylidene)thiazol-4(5H)-one] | 2.0801 | −3.6152 | −0.090 | −0.268 | 7.81 (≈ 28 µM) | 198 | 15.6 (≈ 56 µM) | 31.2 (≈ 112 µM) | 15.6 (≈ 56 µM) | 20 ± 0.5 | 15.6 (≈ 56 µM) | 31.2 (≈ 112 µM) | 31.2 (≈ 112 µM) | 31.2 (≈ 112 µM) | 
C=CCNC1=NC(=O)C(=Cc2ccc(Cl)cc2Cl)S1 [Compound 3b, 2-(Allylamino)-5-(2,4-dichlorobenzylidene)thiazol-4(5H)-one] | 2.2398 | −3.6102 | −1.263 | −0.062 | 7.81 (≈ 24.9 µM) | 238 | 15.6 (≈ 49.9 µM) | 31.2 (≈ 99.8 µM) | 15.6 (≈ 49.9 µM) | 20 ± 0.5 | 15.6 (≈ 49.9 µM) | 15.6 (≈ 49.9 µM) | 31.2 (≈ 99.8 µM) | 31.2 (≈ 99.8 µM) | 
C=CCNC1=NC(=O)C(=Cc2coc3ccc(Cl)cc3c2=O)S1 [Compound 3e, 2-(Allylamino)-5-((6-chloro-4-oxo-4H-chromen-3-yl)methylene)thiazol-4(5H)-one] | 2.2869 | −3.9184 | −0.349 | −0.354 | 7.81 (≈ 22.5 µM) | 299 to 301 | 15.6 (≈ 45 µM) | 31.2 (≈ 90.1 µM) | 15.6 (≈ 45 µM) | 20 ± 0.5 | 15.6 (≈ 45 µM) | 31.2 (≈ 90.1 µM) | 62.5 (≈ 180 µM) | 31.2 (≈ 90.1 µM) | 
O=C1CSC(Nc2cccc3ccccc23)=N1 [Compound 8, 2-(naphthalen-1-ylamino)thiazol-4(5H)-one] | 1.6225 | −3.0931 | 1.125 | −0.163 | 0.03 (≈ 0.124 µM) |  | 0.12 (≈ 0.495 µM) | 0.12 (≈ 0.495 µM) | 0.06 (≈ 0.248 µM) | 24 ± 1 | 0.12 (≈ 0.495 µM) | 0.24 (≈ 0.99 µM) | 0.24 (≈ 0.99 µM) | 0.12 (≈ 0.495 µM) | 
O=C1CSC(Nc2ccccc2)=N1 [Compound 5, 2-(phenylamino)thiazol-4(5H)-one] | 0.9459 | −2.2931 | 2.796 | 0.238 |  |  |  |  |  |  |  |  |  |  | zone of inhibition at 1000 µg/mL ([1]; ATCC10231, read-out: inhibition zone diameters): 22 ± 0.5 mm; MFC [3]: 0.12 µg/mL (≈ 0.624 µM); MIC [3]: 0.06 µg/mL (≈ 0.312 µM); MFC ([4]; ATCC18804): 0.24 µg/mL (≈ 1.25 µM); MIC ([4]; ATCC18804): 0.12 µg/mL (≈ 0.624 µM); MFC ([5]; ATCC10231): 0.48 µg/mL (≈ 2.5 µM); MIC ([5]; ATCC10231): 0.24 µg/mL (≈ 1.25 µM); MFC (Candida krusei ATCC 6258): 0.12 µg/mL (≈ 0.624 µM); MIC (Candida krusei ATCC 6258): 0.06 µg/mL (≈ 0.312 µM)
C=CCNC1=NC(=O)C(=Cc2cccc(Br)c2)S1 [Compound 3f, 2-(Allylamino)-5-(3-bromobenzylidene)thiazol-4(5H)-one] |  |  |  |  | 1.95 (≈ 6.03 µM) | 330 | 7.81 (≈ 24.2 µM) | 1.95 (≈ 6.03 µM) | 3.9 (≈ 12.1 µM) | 22 ± 0.2 | 3.9 (≈ 12.1 µM) | 15.6 (≈ 48.3 µM) | 3.9 (≈ 12.1 µM) | 7.81 (≈ 24.2 µM) | 
O=C1CSC(c2ccccc2)=N1 [Compound 11, 2-phenylthiazol-4(5H)-one] |  |  |  |  | 0.06 (≈ 0.339 µM) |  | 0.12 (≈ 0.677 µM) | 0.24 (≈ 1.35 µM) | 0.12 (≈ 0.677 µM) | 18 ± 1 | 0.12 (≈ 0.677 µM) | 0.24 (≈ 1.35 µM) | 0.48 (≈ 2.71 µM) | 0.48 (≈ 2.71 µM) | 

Further lines, with some results ahead:

RM0 [2] | b [2] | P1 [2] | P2 [2] | MIC [3, 8] [µg/mL] | melting point [°C] | MIC [4, 10] [µg/mL] | MIC [5, 12] [µg/mL] | MIC (Candida krusei ATCC 6258; [14]) [µg/mL] | Compound | zone of inhibition at 1000 µg/mL [1, 6] [mm] | MFC [3, 7] [µg/mL] | MFC [4, 9] [µg/mL] | MFC [5, 11] [µg/mL] | MFC (Candida krusei ATCC 6258; [13]) [µg/mL] | further results
2.1738 | −3.9258 | 0.485 | −0.534 | 3.9 (≈ 12.4 µM) | 278 to 280 | 7.81 (≈ 24.8 µM) | 15.6 (≈ 49.6 µM) | 7.81 (≈ 24.8 µM) | O=C1N=C(Nc2ccccc2)SC1=Cc1cccc(Cl)c1 [Compound 6a, 5-(3-Chlorobenzylidene)-2-(phenylamino)thiazol-4(5H)-one] | 20 ± 0.5 | 3.9 (≈ 12.4 µM) | 15.6 (≈ 49.6 µM) | 31.2 (≈ 99.3 µM) | 3.9 (≈ 12.4 µM) | 
1.7388 | −3.3696 | 1.394 | −0.304 | 0.97 (≈ 2.98 µM) | 347 | 1.95 (≈ 5.99 µM) | 0.97 (≈ 2.98 µM) | 0.97 (≈ 2.98 µM) | O=C1N=C(Nc2ccccc2)SC1=Cc1ccc([N+](=O)[O-])cc1 [Compound 6c, 5-(4-Nitrobenzylidene)-2-(phenylamino)thiazol-4(5H)-one] | 20 ± 1 | 1.95 (≈ 5.99 µM) | 3.9 (≈ 12 µM) | 1.95 (≈ 5.99 µM) | 1.95 (≈ 5.99 µM) | 
2.7789 | −4.1555 | −2.722 | 0.228 | 0.03 (≈ 0.0799 µM) | 152 | 1.95 (≈ 5.19 µM) | 1.95 (≈ 5.19 µM) | 0.97 (≈ 2.58 µM) | O=C1N=C(Nc2cccc3ccccc23)SC1=Cc1ccc([N+](=O)[O-])cc1 [Compound 9c, 2-(Naphthalen-1-ylamino)-5-(4-nitrobenzylidene)thiazol-4(5H)-one] | 20 ± 0.5 | 0.06 (≈ 0.16 µM) | 3.9 (≈ 10.4 µM) | 3.9 (≈ 10.4 µM) | 1.95 (≈ 5.19 µM) | 
3.287 | −4.6935 | −3.746 | 0.618 | 0.12 (≈ 0.29 µM) | 312 | 3.9 (≈ 9.43 µM) | 7.81 (≈ 18.9 µM) | 0.24 (≈ 0.58 µM) | O=C1N=C(Nc2cccc3ccccc23)SC1=Cc1csc(-c2ccccc2)n1 [Compound 9d, 2-(Naphthalen-1-ylamino)-5-((2-phenylthiazol-4-yl)methylene)thiazol-4(5H)-one] | 20 ± 1 | 0.24 (≈ 0.58 µM) | 3.9 (≈ 9.43 µM) | 15.6 (≈ 37.8 µM) | 0.48 (≈ 1.16 µM) | 
2.1996 | −3.8092 | −0.168 | −0.359 | 3.9 (≈ 10.7 µM) | 287 to 289 | 7.81 (≈ 21.5 µM) | 3.9 (≈ 10.7 µM) | 7.81 (≈ 21.5 µM) | O=C1N=C(Nc2ccccc2)SC1=Cc1csc(-c2ccccc2)n1 [Compound 6d, 2-(Phenylamino)-5-((2-phenylthiazol-4-yl)methylene)thiazol-4(5H)-one] | 20 ± 1 | 7.81 (≈ 21.5 µM) | 15.6 (≈ 43 µM) | 7.81 (≈ 21.5 µM) | 15.6 (≈ 43 µM) | 
